For this assay, the system named is HEP3B cells. The experiment in a line: Erythropoietin production by HEP3B cells with reduced erythropoietin production ability (ELISA of culture supernatant). The assay is classed as cell-based, human. As to conditions: 1% oxygen, 24 h. The source says: Erythropoietin production ability of erythropoietin producer cells were reduced by culturing the erythropoietin producer cells under hypoxic condition to allow artificial production of erythropoietin, and then adding inflammatory cytokine or uremia toxin.
TNF-α was employed as the inflammatory cytokine. In addition, indoxyl sulfate was employed as the uremic toxin. Indoxyl sulfate is thought to be the causative substance of uremic toxin, and is also the most commonly used uremia-related marker. Indoxyl sulfate in vivo is also a substance where tryptophan-derived indoles are sulfated and synthesized in the liver. Accordingly, a state of reduced erythropoietin production by addition of inflammatory cytokine or uremic toxin is a state of mimicked renal anemia.
In this Example, HEP3B cells which are liver cancer cells that produce erythropoietin of Groups I to VI with different culture conditions (from ATCC) were used. First, as a culturing step common to all 6 groups, about 300,000 HEP3B cells per well of a 12-well plate were cultured. The culture condition employed was culturing in RPMI1640 medium supplemented with 10% FCS/PC-SM at 37° C. under 20% oxygen condition. After 24 hours of culture, they were divided into the following culture conditions I to VI, and further cultured for 24 hours. Human recombinant TNF-a (rhTNF-a; Roche) was employed as TNF-α in the following.
After culturing for 24 hours under the above culture conditions I to VI, the culture supernatant was separated, and the concentration of erythropoietin contained in the culture supernatant was measured with “Human Erythropoietin ELISA kit” (from Bender MedSystems).

Counter-ions that a name gives are not always drawn.

Turning to `Cl.NCC(=O)CCC(=O)O` [aminolevulinic acid hydrochloride, 5-aminolevulinic acid hydrochloride], the “erythropoietin concentration in culture supernatant, Group (VI) vs Group (V)” value (1 mM indoxyl sulfate, 0.3 μM 5-aminolevulinic acid hydrochloride with 0.15 μM sodium ferrous citrate) is listed as “significantly high erythropoietin concentration value compared to Group (V)”. The “erythropoietin concentration in culture supernatant, Group (IV) vs Group (III)” value (220 U/ml TNF-α, 0.3 μM 5-aminolevulinic acid hydrochloride with 0.15 μM sodium ferrous citrate) was “significantly high erythropoietin concentration value compared to Group (III)”.

For the compound TNF-α, under “220 U/ml TNF-α”, the “erythropoietin concentration in culture supernatant, Group (III) vs Group (I)” value is “decrease in the concentration of erythropoietin was observed”.

Take `O=S(=O)(O)Oc1c[nH]c2ccccc12` [indoxyl sulfate]: the “erythropoietin concentration in culture supernatant, Group (V) vs Group (I)” value (1 mM indoxyl sulfate) is recorded as “decrease in the concentration of erythropoietin was observed”.

Source of the values: US9469598B2, “Erythropoietin production-promoting agent” (SBI Pharmaceuticals Co., Ltd., priority 2011, dated 2016).
